“And” between values parts separate entries of the source, which are not always exact repeats. Equal entries are not always repeated.
Assays:
[1] = target: T1, Corticotropin-releasing factor receptor 1 (Homo sapiens, UniProt P34998); assay: Displacement of [125I]-tyrosine-ovine-CRF from human Corticotropin releasing factor receptor 1
T1 sequence (P34998 whole entry): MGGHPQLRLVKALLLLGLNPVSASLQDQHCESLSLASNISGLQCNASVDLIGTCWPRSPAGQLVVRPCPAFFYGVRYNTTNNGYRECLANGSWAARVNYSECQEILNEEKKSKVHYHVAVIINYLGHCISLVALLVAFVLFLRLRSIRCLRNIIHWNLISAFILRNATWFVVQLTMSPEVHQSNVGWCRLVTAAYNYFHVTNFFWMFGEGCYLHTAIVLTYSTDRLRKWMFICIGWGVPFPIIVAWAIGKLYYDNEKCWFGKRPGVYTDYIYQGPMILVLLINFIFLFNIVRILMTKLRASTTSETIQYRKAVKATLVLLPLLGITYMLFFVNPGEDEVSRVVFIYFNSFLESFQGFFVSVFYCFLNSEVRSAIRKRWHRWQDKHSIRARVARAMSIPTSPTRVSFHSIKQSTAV

Rattus norvegicus [2] = species on record: Rattus norvegicus; assay: % binding inhibition in rat ex vivo assay after one hour; format: functional
Rattus norvegicus [3] = species on record: Rattus norvegicus; assay: % binding inhibition in rat ex vivo assay after three hours; format: functional
Rattus norvegicus [4] = species on record: Rattus norvegicus; assay: %binding inhibition in rat ex vivo assay after three hours; format: functional; set-up: concentration or dose not given beside the values
Rattus norvegicus [5] = species on record: Rattus norvegicus; assay: %binding inhibition in rat ex vivo assay after one hour; format: functional; set-up: concentration or dose not given beside the values
Rattus norvegicus [6] = assay: Tested for situational anxiety in rats by measuring the latency exit from a chamber after po comparison with the activity values; format: functional
[7] = Cmax(nM)value was determined in rats after po dose of 5 mg/kg; format: ADME, organism-based; set-up: dose 5 mg/kg, route oral; settings: rat, in vivo
[8] = CL (L/h/kg) value was determined in dogs after intravenous dose of 1 mg/kg; format: ADME, organism-based, Canis lupus familiaris; set-up: dose 1 mg/kg, route intravenous; settings: dog, in vivo, read-out: Vss (converted)
[9] = % bioavailability value was determined in dogs after po dose of 1 mg/kg; format: ADME, organism-based, Canis lupus familiaris; settings: dog, in vivo, read-out: Bioavailabiility
[10] = C5min (nM) value was determined in dogs after intravenous dose of 1 mg/kg; format: ADME, organism-based, Canis lupus familiaris; set-up: dose 1 mg/kg, route intravenous; settings: dog, in vivo, read-out: C5 min
Rattus norvegicus [11] = assay: (§1) Tested for situational anxiety in rats by measuring the latency exit from a chamber after po administration; format: functional
[12] = t1/2 (h) value of was determined in rats after intravenous dose of 5 mg/kg; format: ADME, organism-based; set-up: dose 5 mg/kg, route intravenous; settings: rat, in vivo
[13] = t1/2 (h) value was determined in dogs after po dose of 1 mg/kg; format: ADME, organism-based, Canis lupus familiaris; set-up: dose 1 mg/kg, route oral; settings: dog, in vivo
[14] = %bioavail value was determined in rats after po dose of 5 mg/kg; format: ADME, organism-based; set-up: dose 5 mg/kg, route oral; settings: rat, in vivo, read-out: Bioavailabiility
Rattus norvegicus [15] = assay: as §1; format: functional; remark: listed apart in the source
Canis familiaris [16] = assay: AUCT(nM.h) value was determined in dogs after po dose of 1 mg/kg; format: ADME, organism-based, Canis lupus familiaris, Plasma; set-up: dose 1 mg/kg, route oral; settings: dog, in vivo
[17] = C5min (nM) value was determined in rats after intravenous dose of 5 mg/kg; format: ADME, organism-based; set-up: dose 5 mg/kg, route intravenous; settings: rat, in vivo, read-out: C5 min
[18] = t1/2 (h) value was determined in dogs after intravenous dose of 1 mg/kg; format: ADME, organism-based, Canis lupus familiaris; set-up: dose 1 mg/kg, route intravenous; settings: dog, in vivo
Rattus norvegicus [19] = assay: CL(L/h/kg) value was determined in rats after intravenous dose of 5 mg/kg; format: ADME, organism-based; set-up: dose 5 mg/kg, route intravenous; settings: in vivo
[20] = Vss(L/kg) value was determined in rats after intravenous dose of 5 mg/kg; format: ADME, organism-based; set-up: dose 5 mg/kg, route intravenous; settings: rat, in vivo, read-out: Vss
Rattus norvegicus [21] = assay: AUCT(nM.h) value was determined in rats after po dose of 5 mg/kg; format: ADME, organism-based, Plasma; set-up: dose 5 mg/kg, route oral; settings: in vivo
Canis familiaris [22] = assay: AUC(nM.h) value was determined in dogs after intravenous dose of 1 mg/kg; format: ADME, organism-based, Canis lupus familiaris, Plasma; set-up: dose 1 mg/kg, route intravenous; settings: dog, in vivo
Rattus norvegicus [23] = assay: as §1; format: functional; remark: listed apart in the source
Rattus norvegicus [24] = assay: as §1; format: functional; remark: listed apart in the source
Canis familiaris [25] = assay: AUCT(nM.h) value was determined in dogs after intravenous dose of 1 mg/kg; format: ADME, organism-based, Canis lupus familiaris, Plasma; set-up: dose 1 mg/kg, route intravenous; settings: dog, in vivo
Rattus norvegicus [26] = assay: AUC(nM.h) value was determined in rats after po dose of 5 mg/kg; format: ADME, organism-based, Plasma; set-up: dose 5 mg/kg, route oral; settings: in vivo
[27] = Tmax(h)value was determined in rats after po dose of 5 mg/kg; format: ADME, organism-based; set-up: dose 5 mg/kg, route oral; settings: rat, in vivo
Canis familiaris [28] = assay: AUC(nM.h) value was determined in dogs after po dose of 1 mg/kg; format: ADME, organism-based, Canis lupus familiaris, Plasma; set-up: dose 1 mg/kg, route oral; settings: dog, in vivo
[29] = Vss(L/kg)value was determined in dogs after intravenous dose of 1 mg/kg; format: ADME, organism-based, Canis lupus familiaris; set-up: dose 1 mg/kg, route intravenous; settings: dog, in vivo, read-out: Vss
[30] = t1/2 (h) value was determined in rats after po dose of 5 mg/kg; format: ADME, organism-based; set-up: dose 5 mg/kg, route oral; settings: rat, in vivo
[31] = Tmax(h)value was determined in dogs after po dose of 1 mg/kg; format: ADME, organism-based, Canis lupus familiaris; set-up: dose 1 mg/kg, route oral; settings: dog, in vivo

In the case of CCCCN(CC)c1nc(C)nc2c(-c3ccc(Cl)cc3Cl)c(C)nn12, the Ki [1] is reported as 0.4 nM, the Binding inhibition (Rattus norvegicus [2]) is reported as 73.2% and the Binding inhibition (Rattus norvegicus [3]) is reported as 82.9%.

For CCCN(CC1CC1)c1nc(C)nc2c(-c3ccc(Cl)cc3Cl)c(C)nn12, the Binding inhibition (Rattus norvegicus [4]) was 95.4%, the Binding inhibition (Rattus norvegicus [5]) was 73.3% and the Ki [1] was 0.7 nM.

Molecule CCCN(CCC)c1nc(C)nc2c(-c3ccc(Cl)cc3Cl)c(C)nn12 has a Ki [1] of 0.6 nM.

CCCC(CC)Nc1nc(C)nc2c(-c3ccc(Cl)cc3Cl)c(C)nn12 (centres undefined) gave a Binding inhibition (Rattus norvegicus [4]) of 67%, a Binding inhibition (Rattus norvegicus [5]) of 46.6% and a Ki [1] of 1.2 nM.

With CNC1=Nc2ccc(Cl)cc2C(c2ccccc2)=[N+]([O-])C1 [CHLORDIAZEPOXIDE] the Latency to exit (Rattus norvegicus [6]) was under 216.

Molecule CCC(COC)Nc1nc(C)nc2c(-c3ccc(Cl)cc3Cl)c(C)nn12 (centres undefined) has a Ki [1] of 1.9 nM.

COCC(COC)Nc1nc(C)nc2c(-c3ccc(Cl)cc3Cl)c(C)nn12 gave a Cmax [7] of 317 nM, a clearance [8] of 15.8 mL/min/kg and a bioavailability [9] of 49.7%. For the same molecule, the concentration at 5 min [10] was 1370 nM, the Latency to exit (Rattus norvegicus [11]) was under 408 and the Binding inhibition (Rattus norvegicus [4]) was 81.3%. It also gave a half-life [12] of 12.3 h, a half-life [13] of 33.4 h and a Binding inhibition (Rattus norvegicus [5]) of 78.2%. The bioavailability [14] was 36.7%, the Latency to exit (Rattus norvegicus [15]) was 680 and the Ki [1] was 1.7 nM. For the same molecule, the AUC T (Canis familiaris [16]) was 0.469 µM·h, the concentration at 5 min [17] was 2880 nM and the half-life [18] was 34.5 h. The CL (Rattus norvegicus [19]) was 2 kg⁻¹ h⁻¹, the Vd [20] was 21.5 L/kg and the AUC T (Rattus norvegicus [21]) was 1.86 µM·h. The AUC (Canis familiaris [22]) was 2.69 µM·h, the Latency to exit (Rattus norvegicus [23]) was <426 and <286 and the Latency to exit (Rattus norvegicus [24]) was under 482. It also gave an AUC T (Canis familiaris [25]) of 2.27 µM·h, an AUC (Rattus norvegicus [26]) of 2.26 µM·h and a Tmax [27] of 0.44 h. It also gave an AUC (Canis familiaris [28]) of 555 Nm.H, a Vd [29] of 27.1 L/kg and a half-life [30] of 16.5 h. It also gave a Tmax [31] of 0.88 h.

For CCCCC(CC)Nc1nc(C)nc2c(-c3ccc(Cl)cc3Cl)c(C)nn12 (centres undefined), the Ki [1] was 1.6 nM.

For CCC(CC)Nc1nc(C)nc2c(-c3ccc(Cl)cc3Cl)c(C)nn12, the Binding inhibition (Rattus norvegicus [4]) was 71.8%, the Binding inhibition (Rattus norvegicus [5]) was 65.9% and the Ki [1] was 1.1 nM.

In the case of CCCC(CCC)Nc1nc(C)nc2c(-c3ccc(Cl)cc3Cl)c(C)nn12, the Binding inhibition (Rattus norvegicus [4]) is reported as 74.8%, the Binding inhibition (Rattus norvegicus [5]) is reported as 63.9% and the Ki [1] is reported as 1.6 nM.

Work on COCCN(CCOC)c1nc(C)nc2c(-c3ccc(Cl)cc3Cl)c(C)nn12 yielded a Binding inhibition (Rattus norvegicus [4]) of 92.9%, a Binding inhibition (Rattus norvegicus [5]) of 85.4% and a Ki [1] of 1.8 nM.

In the case of CCCCN(CC)c1nc(C)nc2c1c(C)cn2-c1c(C)cc(C)cc1C.Cl, the Binding inhibition (Rattus norvegicus [4]) is reported as under 10% and the Binding inhibition (Rattus norvegicus [5]) is reported as under 10%.

In the case of CCOCC(COCC)Nc1nc(C)nc2c(-c3ccc(Cl)cc3Cl)c(C)nn12, the Ki [1] is reported as 6.2 nM.

In the case of Cc1nc(N(C)c2ccccc2)n2nc(C)c(-c3ccc(Cl)cc3Cl)c2n1, the Ki [1] is reported as 44.5 nM.
